Data as given in publication PMC4531110 (Chemical biology & drug design, 2015).
Entries after “also recorded” stand apart in the source; their conditions may differ. Where two headings read alike, the source gives them in different places.

Legend:
influenza RNA promoter [1] = type: binding, influenza A virus; details: for line broadening of the imino protons of U27: 1D 1H NMR; for binding to the RNA promoter (1D 1H NMR, imino protons of U26, G13): 30 or 50 μM RNA promoter; for Kd: pH 6
in vitro = details: dog
[2] = ATPlite assay for cytotoxicity assessment; details: dog, MDCK cells (results text: MDCK-HA cells)
[3] = tested on: A/WSN/33 influenza virus (WSN-Ren luciferase virus) in MDCK-HA cells; details: for IC50/CC50: ratio of WSN-Ren IC50 to ATPlite CC50
[4] = tested on: wild-type influenza virus (A/Puerto Rico/8/1935); type: cell-based
influenza RNA promoter [5] = details: from peak intensity of imino protons of U26, G13 and G24; cited from earlier work
WSN-Ren luciferase virus = experiment: Viral replication assay by RT-PCR, WSN nucleoprotein mRNA level in MDCK-HA cells; type: cell-based, influenza A virus; details: 50 μM, standardized against beta-actin, vs DMSO
[6] = tested on: A/WSN/33 influenza virus (WSN-Ren luciferase virus) in MDCK-HA cells; details: cell-based viral replication (luciferase) assay; cited from earlier work
MDCK cells [7] = details: cited from earlier work
MDCK cells [8] = tested on: MDCK cells

| SMILES | line broadening of the imino protons of U27 (influenza RNA promoter [1]) | binding to the RNA promoter (1D 1H NMR, imino protons of U26, G13) (influenza RNA promoter [1]) | CC50 at 24 h (in vitro) | IC50/CC50 [3] | Kd (influenza RNA promoter [1]) | further results |
| --- | --- | --- | --- | --- | --- | --- |
| COc1cc2nc(N3CCN(C(=O)CCO)CC3)nc(N)c2cc1OC [Compound 9, 1-(4-(4-amino-6,7-dimethoxyquinazolin-2-yl)piperazin-1-yl)-3-hydroxypropan-1-one] | caused line broadening of the imino protons of U27 | bound to the influenza RNA promoter; also recorded: compound binding to RNA promoter | > 250 µM |  |  |  |
| COc1cc2nc(N3CCN(C(=O)c4ccco4)CC3)nc(N)c2cc1OC [Compound 14, (4-(4-amino-6,7-dimethoxyquinazolin-2-yl)piperazin-1-yl)(furan-2-yl)methanone] | caused line broadening of the imino protons of U27 | compound binding to RNA promoter |  | 0.36 |  | CC50 at 24 h [2]: 78.2 µM |
| CCOC(=O)C1=C[C@@H](OC(CC)CC)[C@H](NC(C)=O)[C@@H](N)C1 [Oseltamivir phosphate, oseltamivir phosphate, reference compound] |  |  |  |  |  | inhibition of A/PR8 nucleoprotein mRNA level [4]: showed inhibitory effects |
| COc1cc2nc(N3CCN(C(=O)CNC(=O)CNC(=O)CN)CC3)nc(N)c2cc1OC [Compound 3, 2-amino-N-(2-((2-(4-(4-amino-6,7-dimethoxyquinazolin-2-yl)piperazin-1-yl)-2-oxoethyl)amino)-2-oxoethyl)acetamide] | caused line broadening of the imino protons of U27 | bound to the influenza RNA promoter; also recorded: compound binding to the RNA promoter | > 250 µM |  | 132 µM |  |
| COc1cc2nc(N3CCN(C(=O)CCCCN)CC3)nc(N)c2cc1OC [Compound 4, 5-amino-1-(4-(4-amino-6,7-dimethoxyquinazolin-2-yl)piperazin-1-yl)pentan-1-one] | caused line broadening of the imino protons of U27 | bound to the influenza RNA promoter; also recorded: compound binding to the RNA promoter | > 250 µM |  |  |  |
| COc1cc2nc(N3CCN(C(=O)C4CC4)CC3)nc(N)c2cc1OC [Compound 10, (4-(4-amino-6,7-dimethoxyquinazolin-2-yl)piperazin-1-yl)(cyclopropyl)methanone] |  | compound binding to RNA promoter | > 250 µM | <0.14 | 127 µM | inhibition of A/PR8 nucleoprotein mRNA level [4]: significant dose-dependent inhibitory activity; also recorded: showed inhibitory effects; IC50 [3]: 34.2 ± 17.2 µM |
| COc1cc2nc(N3CCN(C(=O)c4cccs4)CC3)nc(N)c2cc1OC [Compound 15, (4-(4-amino-6,7-dimethoxyquinazolin-2-yl)piperazin-1-yl)(thiophen-2-yl)methanone] |  | compound binding to RNA promoter | 67 µM | 0.25 | 221 µM |  |
| COc1cc2nc(N3CCNCC3)nc(N)c2cc1OC [Compound 1, 6,7-dimethoxy-2-(1-piperazinyl)-4-quinazolinamine] | caused line broadening of the imino protons of U27 |  |  | <0.55 | 61.5 µM | Kd (influenza RNA promoter [5]): 50.5 ± 9 µM; inhibition of viral nucleoprotein mRNA production (WSN-Ren luciferase virus): not effective; IC50 [6]: 549 µM; CC50 (MDCK cells [7]): > 1000 µM |
| COc1cc2nc(N3CCN(C(=O)C45CC6CC(CC(C6)C4)C5)CC3)nc(N)c2cc1OC [Compound 12, (1r,3R,5S)-adamantan-1-yl(4-(4-amino-6,7-dimethoxyquinazolin-2-yl)piperazin-1-yl)methanone] |  | bound to the influenza RNA promoter; also recorded: compound binding to RNA promoter |  | >15.24 |  | CC50 (MDCK cells [8]): 16.4 µM; IC50 [3]: > 250 µM |
| COc1cc2nc(N3CCN(C(=O)C(C)C)CC3)nc(N)c2cc1OC [Compound 7, 1-(4-(4-amino-6,7-dimethoxyquinazolin-2-yl)piperazin-1-yl)-2-methylpropan-1-one] | caused line broadening of the imino protons of U27 | compound binding to RNA promoter | > 250 µM | <0.14 | 158 µM | IC50 [3]: 33.9 ± 23.2 µM |
| COc1cc2nc(N3CCN(S(C)(=O)=O)CC3)nc(N)c2cc1OC [Compound 5, 6,7-dimethoxy-2-(4-(methylsulfonyl)piperazin-1-yl)quinazolin-4-amine] | caused line broadening of the imino protons of U27 | bound to the influenza RNA promoter; also recorded: compound binding to RNA promoter | > 250 µM |  |  |  |
| COc1cc2nc(N3CCN(C(=O)c4ccccc4)CC3)nc(N)c2cc1OC [Compound 16, (4-(4-amino-6,7-dimethoxyquinazolin-2-yl)piperazin-1-yl)(phenyl)methanone] |  | compound binding to RNA promoter | > 250 µM | <0.43 | 321 µM |  |
| CCC(=O)N1CCN(c2nc(N)c3cc(OC)c(OC)cc3n2)CC1 [Compound 6, 1-(4-(4-amino-6,7-dimethoxyquinazolin-2-yl)piperazin-1-yl)propan-1-one] |  | compound binding to RNA promoter | > 250 µM | <0.16 | 114 µM |  |
| COc1cc2nc(N3CCN(C(=O)C4CCCO4)CC3)nc(N)c2cc1OC (centres unmarked) [Compound 13, (4-(4-amino-6,7-dimethoxyquinazolin-2-yl)piperazin-1-yl)(tetrahydrofuran-2-yl)methanone] |  |  |  |  |  | CC50 at 24 h [2]: > 250 µM |
| COc1cc2nc(N3CCN(C(=O)C(C)OC)CC3)nc(N)c2cc1OC (centres unmarked) [Compound 11, 1-(4-(4-amino-6,7-dimethoxyquinazolin-2-yl)piperazin-1-yl)-2-methoxypropan-1-one] | caused line broadening of the imino protons of U27 | bound to the influenza RNA promoter; also recorded: compound binding to RNA promoter | > 250 µM |  |  |  |
| CCCC(=O)N1CCN(c2nc(N)c3cc(OC)c(OC)cc3n2)CC1 [Compound 8, 1-(4-(4-amino-6,7-dimethoxyquinazolin-2-yl)piperazin-1-yl)butan-1-one] |  | compound binding to RNA promoter | > 250 µM | <0.18 | 44.4 µM | IC50 [3]: 44.2 ± 11.3 µM |
